Broadly, the pEC50 is the EC50 on a negative log10 scale, so that one unit is a factor of ten. The low end stands for a high EC50, the high end for a low EC50.

pEC50: −log10 of the molar value.

The values that follow come from patent US10059713B2 (Takeda Pharmaceutical Company Limited, priority 2014, dated 2018).

This assay has as its target human GPR43 (Homo sapiens (Human), UniProt O15552). The assay is described as follows: Ca-Flux functional assay: determination of agonist/positive allosteric modulator (PAM) activity. Type of assay: cell-based. The note with it: CHO-K1 Gα16 cells stably expressing human GPR43; compound added with EC20 sodium acetate; intracellular Ca2+ by FLIPR; does not distinguish agonist from PAM. On the procedure: Ca-Flux Functional Assay: Determination of Agonist/Positive Allosteric Modulator (PAM) Activity
GPR43 agonist/PAM activity was determined by measuring changes in intracellular calcium levels using a Ca^2+ sensitive fluorescent dye. The changes in fluorescent signal were monitored by FLIPR (manufactured by Molecular Devices). GPR43 mediated increases in intracellular Ca^2+ concentration were readily detected upon activation with sodium acetate. Prior to the assay (24 hours), CHO-K1 Gα16 cells stably expressing human GPR43 were-seeded in cell culture medium in black, clear-bottom 384-well plates (Corning Inc) and grown overnight at 37° C., 5% CO2. On the day of the assay, cell culture media was removed and cells were loaded with Calcium 5 Dye (Molecular Devices) diluted in HBSS containing 25 mM HEPES, 2.5 mM Probenecid, 0.1% BSA for 1 hour at 37° C., 5% CO2. 10 point half log concentration response curves of sodium acetate from 10 mM were conducted prior to the testing of compounds to calculate the sodium acetate concentration that produces 20% of the maximal response (EC20). Test compounds (at 10 point half log concentration response curves from 10 μM) were added in the presence of sodium acetate to achieve a final concentration that produces approximately 20% maximal response as calculated from the previous experiment. The changes in fluorescent signal were monitored by FLIPR upon addition of the compound/EC20 sodium acetate mix. The EC50 values were determined from ten point concentration response curves. Curves were generated using the average of two wells for each data point.
The above assay detects both GPR43 receptor agonists and positive allosteric modulators of the GPR43 receptor, without distinguishing between the two. Activity in either regard is useful in the treatment of conditions associated with GPR43 receptor activity.

human GPR43, sequence (O15552 whole entry): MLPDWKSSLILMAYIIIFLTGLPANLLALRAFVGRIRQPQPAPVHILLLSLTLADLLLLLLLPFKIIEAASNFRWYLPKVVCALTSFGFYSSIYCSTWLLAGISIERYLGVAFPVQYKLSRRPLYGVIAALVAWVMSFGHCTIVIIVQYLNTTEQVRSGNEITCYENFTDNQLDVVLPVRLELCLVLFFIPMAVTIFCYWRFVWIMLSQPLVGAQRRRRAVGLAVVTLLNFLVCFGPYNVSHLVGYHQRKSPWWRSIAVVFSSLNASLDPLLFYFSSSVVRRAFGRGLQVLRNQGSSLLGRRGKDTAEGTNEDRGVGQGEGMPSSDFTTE

As to `Cc1nc(N2C[C@@H](C)OC[C@H]2C)c2[nH]c(N)c(S(=O)(=O)c3ccccc3F)c2n1` [Example 232, 4-[(2R,5R)-2,5-dimethylmorpholin-4-yl]-7-(2-fluorobenzenesulfonyl)-2-methyl-5H-pyrrolo[3,2-d]pyrimidin-6-amine], the pEC50 was 8.52.
`Cc1ccccc1S(=O)(=O)c1c(N)[nH]c2c(N3CCOC(C)C3)ncnc12` (centres unmarked) [Example 120, 7-(2-methylbenzenesulfonyl)-4-(2-methylmorpholin-4-yl)-5H-pyrrolo[3,2-d]pyrimidin-6-amine] gave a pEC50 of 6.88.
`Cc1cccc(-c2ncnc3c(S(=O)(=O)c4ccccc4)c(N)[nH]c23)c1` [Example 57, 7-(benzenesulfonyl)-4-(3-methylphenyl)-5H-pyrrolo[3,2-d]pyrimidin-6-amine] showed a negative logarithm of the EC50 (pEC50) of 7.82.
`Cc1nc(N2CCOC3(CC3)C2)c2[nH]c(N)c(S(=O)(=O)c3ccccc3F)c2n1` [Example 208, 7-(2-fluorobenzenesulfonyl)-2-methyl-4-{4-oxa-7-azaspiro[2.5]octan-7-yl}-5H-pyrrolo[3,2-d]pyrimidin-6-amine] showed a pEC50 of 8.52.
The molecule `COc1ccc(S(=O)(=O)c2c(N)[nH]c3c(C4CCCC4)ncnc23)cc1` [Example 73, 4-cyclopentyl-7-(4-methoxybenzenesulfonyl)-5H-pyrrolo[3,2-d]pyrimidin-6-amine] had a negative logarithm of the EC50 (pEC50) of 6.93.
In turn, `COCC1CN(c2ncnc3c(S(=O)(=O)c4ccccc4)c(N)[nH]c23)CCO1` (centres unmarked) [Example 81, 7-(benzenesulfonyl)-4-[2-(methoxymethyl)morpholin-4-yl]-5H-pyrrolo[3,2-d]pyrimidin-6-amine] showed a pEC50 of 5.92.
Then `CNc1[nH]c2c(C3CCCCC3)ncnc2c1S(=O)(=O)c1ccccc1` [Example 35, 7-(benzenesulfonyl)-4-cyclohexyl-N-methyl-5H-pyrrolo[3,2-d]pyrimidin-6-amine], with 5.12; and `Nc1[nH]c2c(C3=CCCCC3)ncnc2c1S(=O)(=O)c1ccccn1` [Example 20, 4-(cyclohex-1-en-1-yl)-7-(pyridine-2-sulfonyl)-5H-pyrrolo[3,2-d]pyrimidin-6-amine], with 6.50; and `Nc1[nH]c2c(N3CCCC(n4cccn4)C3)ncnc2c1S(=O)(=O)c1ccccc1` (centres unmarked) [Example 114, 7-(benzenesulfonyl)-4-[3-(1H-pyrazol-1-yl)piperidin-1-yl]-5H-pyrrolo[3,2-d]pyrimidin-6-amine], with 5.96.
The result for `Nc1[nH]c2c(OC3CCOCC3)ncnc2c1S(=O)(=O)c1ccccc1` [Example 166, 7-(benzenesulfonyl)-4-(oxan-4-yloxy)-5H-pyrrolo[3,2-d]pyrimidin-6-amine] reads 5.79; that for `COc1ccc(S(=O)(=O)c2c(N)[nH]c3c(C4=CCCCC4)ncnc23)cn1` [Example 43, 4-(cyclohex-1-en-1-yl)-7-(6-methoxypyridine-3-sulfonyl)-5H-pyrrolo[3,2-d]pyrimidin-6-amine], 7.11; that for `Cc1nc(N2CCOC(C(F)(F)F)C2)c2[nH]c(N)c(S(=O)(=O)c3ccccc3)c2n1` (centres unmarked) [Example 225, 7-(benzenesulfonyl)-2-methyl-4-[2-(trifluoromethyl)morpholin-4-yl]-5H-pyrrolo[3,2-d]pyrimidin-6-amine], 7.85.
The result for `Cc1nc(N2CCO[C@@H](C(F)(F)F)C2)c2[nH]c(N)c(S(=O)(=O)c3cccc(F)c3F)c2n1` [Example 286, 7-(2,3-difluorobenzenesulfonyl)-2-methyl-4-[(2R)-2-(trifluoromethyl)morpholin-4-yl]-5H-pyrrolo[3,2-d]pyrimidin-6-amine] reads 8.52; that for `Nc1[nH]c2c(N3CCOC4CCCC43)ncnc2c1S(=O)(=O)c1ccccc1` (centres unmarked) [Example 215, 7-(benzenesulfonyl)-4-{octahydrocyclopenta[b]morpholin-4-yl}-5H-pyrrolo[3,2-d]pyrimidin-6-amine], 7.21.
Molecule `Nc1[nH]c2c(Br)cncc2c1S(=O)(=O)c1ccccc1` [Example 77, 3-(benzenesulfonyl)-7-bromo-1H-pyrrolo[3,2-c]pyridin-2-amine] gave a negative logarithm of the EC50 (pEC50) of 6.20.
For `Cc1nc(OC(C)C)c2[nH]c(N)c(S(=O)(=O)c3ccccc3F)c2n1` [Example 272, 7-(2-fluorobenzenesulfonyl)-2-methyl-4-(propan-2-yloxy)-5H-pyrrolo[3,2-d]pyrimidin-6-amine], the pEC50 was 7.47.
In turn, `Nc1[nH]c2c(N3CCOC(C(F)(F)F)C3)ncnc2c1S(=O)(=O)c1ccccc1` (centres unmarked) [Example 141, 7-(benzenesulfonyl)-4-[2-(trifluoromethyl)morpholin-4-yl]-5H-pyrrolo[3,2-d]pyrimidin-6-amine] had a pEC50 of 7.92.
Then `COc1ccc(S(=O)(=O)c2c(N)[nH]c3c(C4CCCCC4)ncnc23)cn1` [Example 44, 4-cyclohexyl-7-(6-methoxypyridine-3-sulfonyl)-5H-pyrrolo[3,2-d]pyrimidin-6-amine], with 6.76; and `CCOC1CCCN(c2ncnc3c(S(=O)(=O)c4ccccc4)c(N)[nH]c23)C1` (centres unmarked) [Example 113, 7-(benzenesulfonyl)-4-(3-ethoxypiperidin-1-yl)-5H-pyrrolo[3,2-d]pyrimidin-6-amine], with 6.07; and `Cc1nc(N2CCOC3(CC3)C2)c2[nH]c(N)c(S(=O)(=O)c3cccc(F)c3)c2n1` [Example 192, 7-(3-fluorobenzenesulfonyl)-2-methyl-4-{4-oxa-7-azaspiro[2.5]octan-7-yl}-5H-pyrrolo[3,2-d]pyrimidin-6-amine], with 7.51.
`Cc1cc(F)ccc1S(=O)(=O)c1c(N)[nH]c2c(N3CCOC(C)C3)ncnc12` (centres unmarked) [Example 178, 7-(4-fluoro-2-methylbenzenesulfonyl)-4-(2-methylmorpholin-4-yl)-5H-pyrrolo[3,2-d]pyrimidin-6-amine] gave a pEC50 of 6.17.
The result for `Cc1ccc(S(=O)(=O)c2c(N)[nH]c3c(N4CCOC(C)C4)ncnc23)c(F)c1` (centres unmarked) [Example 146, 7-(2-fluoro-4-methylbenzenesulfonyl)-4-(2-methylmorpholin-4-yl)-5H-pyrrolo[3,2-d]pyrimidin-6-amine] reads 8.05.
As to `CC1CN(c2ncnc3c(S(=O)(=O)CCc4ccccc4)c(N)[nH]c23)CCO1` (centres unmarked) [Example 153, 4-(2-methylmorpholin-4-yl)-7-(2-phenylethanesulfonyl)-5H-pyrrolo[3,2-d]pyrimidin-6-amine], the pEC50 is 6.09.
`COCC1CCN(c2ncnc3c(S(=O)(=O)c4ccccc4)c(N)[nH]c23)CC1` [Example 112, 7-(benzenesulfonyl)-4-[4-(methoxymethyl)piperidin-1-yl]-5H-pyrrolo[3,2-d]pyrimidin-6-amine] gave a pEC50 of 6.09.
The result for `CC1CN(c2ncnc3c(S(=O)(=O)c4cc(F)cc(F)c4)c(N)[nH]c23)CCO1` (centres unmarked) [Example 147, 7-(3,5-difluorobenzenesulfonyl)-4-(2-methylmorpholin-4-yl)-5H-pyrrolo[3,2-d]pyrimidin-6-amine] reads 7.06.
The result for `CC(C)CC1CN(c2ncnc3c(S(=O)(=O)c4ccccc4)c(N)[nH]c23)CCO1` (centres unmarked) [Example 101, 7-(benzenesulfonyl)-4-[2-(2-methylpropyl)morpholin-4-yl]-5H-pyrrolo[3,2-d]pyrimidin-6-amine] reads 7.51; that for `Nc1[nH]c2c(N3CCC(F)CC3)ncnc2c1S(=O)(=O)c1ccccc1` [Example 46, 7-(benzenesulfonyl)-4-(4-fluoropiperidin-1-yl)-5H-pyrrolo[3,2-d]pyrimidin-6-amine], 6.82; that for `Nc1[nH]c2c(C3=CCC(F)(F)CC3)ncnc2c1S(=O)(=O)c1ccccc1` [Example 127, 7-(benzenesulfonyl)-4-(4,4-difluorocyclohex-1-en-1-yl)-5H-pyrrolo[3,2-d]pyrimidin-6-amine], 7.44.
The result for `Cc1nc(N2CCOC(C)C2)c2[nH]c(N)c(S(=O)(=O)c3ccccc3F)c2n1` (centres unmarked) [Example 176, 7-(2-fluorobenzenesulfonyl)-2-methyl-4-(2-methylmorpholin-4-yl)-5H-pyrrolo[3,2-d]pyrimidin-6-amine] reads 8.10; that for `CC1CN(c2nc(C(F)(F)F)nc3c(S(=O)(=O)c4ccccc4F)c(N)[nH]c23)CCO1` (centres unmarked) [Example 268, 7-(2-fluorobenzenesulfonyl)-4-(2-methylmorpholin-4-yl)-2-(trifluoromethyl)-5H-pyrrolo[3,2-d]pyrimidin-6-amine], 7.77; that for `Nc1[nH]c2c(C3=CCCCC3)ncnc2c1S(=O)(=O)c1ccc(Cl)cc1` [Example 21, 7-[(4-chlorobenzene)sulfonyl]-4-(cyclohex-1-en-1-yl)-5H-pyrrolo[3,2-d]pyrimidin-6-amine], 7.27.
In the case of `Cc1cc(CN(C)c2ncnc3c(S(=O)(=O)c4ccccc4)c(N)[nH]c23)no1` [Example 99, 7-(benzenesulfonyl)-4-N-methyl-4-N-[(5-methyl-1,2-oxazol-3-yl)methyl]-5H-pyrrolo[3,2-d]pyrimidine-4,6-diamine], the pEC50 was 5.33.
